Source: the CheMixHub viscosity set

Assay: xn = mol fraction of the nth substance listed

Cc1cccc(C(C)C)c1 + Cc1ccc(C(C)C)cc1
101 kPa, x2 = 0.4
Details | viscosity [mPa·s]
293.15 K | 0.8
313.15 K | 0.72

CCOC(=O)CCC(=O)OCC + O=C1CCCO1
Details | viscosity [mPa·s]
298.15 K, 101 kPa, x2 = 0.95 | 1.745

CCCCCCCCCCC + CCCCCCCO
viscosity [mPa·s], 100 kPa
Details | x1 = 0.0999 | x1 = 0.1998 | x1 = 0.3007 | x1 = 0.399 | x1 = 0.5004 | x1 = 0.5988 | x1 = 0.7002 | x1 = 0.8004 | x1 = 0.8983
293.15 K | 5.317 | 4.102 | 3.124 | 2.518 | 2.05 | 1.798 | 1.547 | 1.383 | 1.239
298.15 K | 4.517 | 3.516 | 2.713 | 2.219 | 1.831 | 1.626 | 1.407 | 1.263 | 1.137
303.15 K | 3.86 | 3.037 | 2.378 | 1.975 | 1.654 | 1.47 | 1.284 | 1.158 | 1.048
308.15 K | 3.32 | 2.641 | 2.202 | 1.816 | 1.537 | 1.342 | 1.176 | 1.063 | 0.968
313.15 K | 2.876 | 2.315 | 1.956 | 1.633 | 1.369 | 1.229 | 1.078 | 0.981 | 0.896
318.15 K | 2.509 | 2.089 | 1.751 | 1.477 | 1.247 | 1.128 | 0.994 | 0.908 | 0.833
323.15 K | 2.251 | 1.86 | 1.575 | 1.34 | 1.14 | 1.04 | 0.918 | 0.843 | 0.777

CCCCCCCCCCC + CCCCOCCCC
viscosity [mPa·s], 101 kPa
Details | x2 = 0.1096 | x2 = 0.2089 | x2 = 0.3153 | x2 = 0.4013 | x2 = 0.5046 | x2 = 0.6034 | x2 = 0.7073 | x2 = 0.8109 | x2 = 0.9181
298.15 K | 1.004 | 0.9429 | 0.889 | 0.8479 | 0.8073 | 0.7715 | 0.7333 | 0.7 | 0.6643
308.15 K | 0.8817 | 0.8306 | 0.7845 | 0.7501 | 0.7159 | 0.6891 | 0.6599 | 0.6356 | 0.6114
318.15 K | 0.7547 | 0.7179 | 0.6814 | 0.6523 | 0.624 | 0.5989 | 0.5761 | 0.5579 | 0.5355

OCCCl + CCCOC(C)=O
viscosity [mPa·s], 101.33 kPa
Details | x1 = 0.1017 | x1 = 0.2031 | x1 = 0.3017 | x1 = 0.4061 | x1 = 0.5057 | x1 = 0.5974 | x1 = 0.7006 | x1 = 0.7963 | x1 = 0.9006
298.15 K | 0.593 | 0.658 | 0.736 | 0.852 | 0.989 | 1.155 | 1.43 | 1.805 | 2.302
303.15 K | 0.557 | 0.614 | 0.687 | 0.792 | 0.908 | 1.057 | 1.293 | 1.615 | 2.035
308.15 K | 0.525 | 0.58 | 0.642 | 0.733 | 0.856 | 0.97 | 1.177 | 1.473 | 1.81

OCCCO + CC(O)CO
viscosity [mPa·s], 101 kPa
Details | x2 = 0.1014 | x2 = 0.2101 | x2 = 0.2999 | x2 = 0.4071 | x2 = 0.5013 | x2 = 0.5925 | x2 = 0.7113 | x2 = 0.8005 | x2 = 0.9208
298.15 K | 42.34 | 42.71 | – | – | 43.62 | 43.82 | 43.95 | 43.88 | –
303.15 K | – | 34.03 | 34.2 | 34.39 | 34.49 | 34.55 | 34.49 | 34.36 | 34.11
308.15 K | 27.18 | 27.11 | 27.05 | – | – | – | 26.36 | 26.06 | 25.59
